According to publication PMC7006954 (Journal of medicinal chemistry, 2016):

Target: T1, human CD4 (CD4-YFP) expression in CHO•CD4-YFP cells (Homo sapiens, UniProt P01730)
Test: not given
Conditions: read-out: IC50 (CD4 down-modulation); cited from earlier work

Row | Structure (SMILES) | IC50 [µM]
1 | C=C1CN(S(=O)(=O)c2ccc(C)cc2)CCCN(Cc2ccccc2)CCCN(S(=O)(=O)c2ccc(C)cc2)C1 [CADA, Cyclotriazadisulfonamide] | 0.4

Target: T1, human CD4 (CD4-YFP) expression in CHO•CD4-YFP cells
Test: CD4 down-modulation in CHO cells stably expressing CD4-YFP
Format: cell-based
Conditions: 50 μM compound, CD4-YFP transfected CHO cells, 24 h

Row | percentage CD4 down-modulation measured at highest (50 μM) compound concentration [%] | Structure (SMILES)
2 | 15 | C=C1CN(C(=O)c2ccc(N)cc2)CCCN(Cc2ccccc2)CCCN(S(=O)(=O)c2ccc(C)cc2)C1.Cl [Compound 62]

Same assay, conditions: read-out: IC50 CD4 (μM) mean ± SD; 50% down-modulation of CD4 expression, CD4-YFP transfected CHO cells, 24 h drug treatment; n ≥ 3; benzyl-tailed compounds

Row | DC50 [µM] | Structure (SMILES)
3 | 0.55 ± 0.17 | C=C1CN(S(=O)(=O)c2ccc(C)cc2)CCCN(Cc2ccccc2)CCCN(S(=O)(=O)c2ccc3ccccc3c2)C1 [Compound 26]
4 | 1.06 ± 0.12 | C=C1CN(S(=O)(=O)c2ccc(C)cc2)CCCN(Cc2ccccc2)CCCN(S(=O)(=O)c2ccc3c(c2)OCO3)C1 [Compound 33]
5 | > 50 | C=C1CN(C(=O)c2ccc([N+](=O)[O-])cc2)CCCN(Cc2ccccc2)CCCN(S(=O)(=O)c2ccc(C)cc2)C1 [Compound 60]
6 | 6.28 ± 2.04 | C=C1CN(S(=O)(=O)c2ccc(C)cc2)CCCN(Cc2ccccc2)CCCN(S(=O)(=O)c2ccc(OC(=S)N(C)C)cc2)C1 [Compound 57]
7 | 3.78 ± 2.38 | C=C1CN(C(=O)c2ccc(C)cc2)CCCN(Cc2ccccc2)CCCN(S(=O)(=O)c2ccc(C)cc2)C1 [Compound 59]
8 | 1.46 ± 0.05 | C=C1CN(S(=O)(=O)c2ccccc2)CCCN(Cc2ccccc2)CCCN(S(=O)(=O)c2ccc(C)cc2)C1 [Compound 25, 1-(benzenesulfonyl)-9-benzyl-3-methylene-5-(p-toluenesulfonyl)-1,5,9-triazacyclododecane]
9 | 0.29 ± 0.09 | C=C1CN(S(=O)(=O)c2ccc(C)cc2)CCCN(Cc2ccccc2)CCCN(S(=O)(=O)c2ccc(OC)cc2)C1 [Compound 50, reference compound]
10 | 0.31 ± 0.06 | C=C1CN(S(=O)(=O)c2ccc(C)cc2)CCCN(Cc2ccccc2)CCCN(S(=O)(=O)c2ccc(OC)c(OC)c2)C1 [Compound 31]
11 | 4.22 ± 0.84 | C=C1CN(C(=O)c2ccc(OC)cc2)CCCN(Cc2ccccc2)CCCN(S(=O)(=O)c2ccc(C)cc2)C1 [Compound 58, 9-benzyl-3-methylene-5-(p-methoxybenzoyl)-1-(p-toluenesulfonyl)-1,5,9-triazacyclododecane]
12 | 1.08 ± 0.1 | C=C1CN(S(=O)(=O)c2ccc(C)cc2)CCCN(Cc2ccccc2)CCCN(S(=O)(=O)N2CCOCC2)C1 [Compound 63]
13 | > 50 | C=C1CN(C(=O)c2ccc(N)cc2)CCCN(Cc2ccccc2)CCCN(S(=O)(=O)c2ccc(C)cc2)C1.Cl [Compound 62]
14 | 1.02 ± 0.09 | C=C1CN(S(=O)(=O)c2ccc(C)cc2)CCCN(Cc2ccccc2)CCCN(S(=O)(=O)c2cccc(N)c2)C1 [Compound 44]
15 | 1.35 ± 0.3 | C=C1CN(S(=O)(=O)c2ccc(C)cc2)CCCN(Cc2ccccc2)CCCN(S(=O)(=O)c2ccc(OC)cc2OC)C1 [Compound 30]
16 | 0.46 ± 0.07 | C#CCOc1ccc(S(=O)(=O)N2CCCN(Cc3ccccc3)CCCN(S(=O)(=O)c3ccc(C)cc3)CC(=C)C2)cc1 [Compound 56]
17 | 0.17 ± 0.08 | C=C1CN(S(=O)(=O)c2ccc(C)cc2)CCCN(Cc2ccccc2)CCCN(S(=O)(=O)c2ccc(N(C)C)cc2)C1 [Compound 32]
18 | 7.32 ± 1.7 | C=C1CN(C(=O)c2ccccc2)CCCN(Cc2ccccc2)CCCN(S(=O)(=O)c2ccc(C)cc2)C1 [Compound 61]
19 | 0.79 ± 0.1 | C=C1CN(S(=O)(=O)c2ccc(C)cc2)CCCN(Cc2ccccc2)CCCN(S(=O)(=O)c2cccc(N(C)C)c2)C1 [Compound 38]
20 | 2.02 ± 0.29 | C=C1CN(S(=O)(=O)c2ccc(C)cc2)CCCN(Cc2ccccc2)CCCN(S(=O)(=O)c2cccc([N+](=O)[O-])c2)C1 [Compound 34]
21 | 5.25 ± 1.1 | C=C1CN(S(=O)(=O)c2ccc(C)cc2)CCCN(Cc2ccccc2)CCCN(S(=O)(=O)c2ccc([N+](=O)[O-])cc2)C1 [Compound 27]
22 | 2.12 ± 0.39 | C=C1CN(S(=O)(=O)c2ccc(C)cc2)CCCN(Cc2ccccc2)CCCN(S(=O)(=O)c2ccccc2N)C1 [Compound 43]
23 | 3.58 ± 0.54 | C=C1CN(S(=O)(=O)c2ccc(C)cc2)CCCN(Cc2ccccc2)CCCN(S(=O)(=O)c2ccc(O)cc2)C1 [Compound 55]
24 | 1.2 ± 0.01 | C=C1CN(S(=O)(=O)c2ccc(C)cc2)CCCN(Cc2ccccc2)CCCN(S(=O)(=O)c2ccc(OC(F)(F)F)cc2)C1 [Compound 29]
25 | 2.42 ± 0.42 | C=C1CN(S(=O)(=O)c2ccc(C)cc2)CCCN(Cc2ccccc2)CCCN(S(=O)(=O)c2ccc(N)cc2)C1 [Compound 45]
26 | 1.58 ± 0.2 | C=C1CN(S(=O)(=O)c2ccc(C)cc2)CCCN(Cc2ccccc2)CCCN(S(=O)(=O)N(C)C)C1 [Compound 35]
27 | 0.92 ± 0.11 | C=C1CN(S(=O)(=O)c2ccc(C)cc2)CCCN(Cc2ccccc2)CCCN(S(=O)(=O)c2ccc(F)cc2)C1 [Compound 37]
28 | > 50 | C=C1CNCCCN(Cc2ccccc2)CCCN(S(=O)(=O)c2ccc(C)cc2)C1 [Compound 49, 9-Benzyl-3-methylene-1-(p-toluenesulfonyl)-1,5,9-triazacyclododecane]
29 | 0.23 ± 0.05 | C=C1CN(S(=O)(=O)c2ccc(C)cc2)CCCN(Cc2ccccc2)CCCN(S(=O)(=O)c2ccc(SC)cc2)C1 [Compound 41, 9-Benzyl-3-methylene-1-(p-thiomethoxybenzenesulfonyl)-5-(p-toluenesulfonyl)-1,5,9-triazacyclododecane]
30 | 0.7 ± 0.09 | C=C1CN(S(=O)(=O)c2ccc(C)cc2)CCCN(Cc2ccccc2)CCCN(S(=O)(=O)c2ccccc2[N+](=O)[O-])C1 [Compound 28]
31 | 3.17 ± 0.64 | C=C1CN(S(=O)(=O)c2ccc(C)cc2)CCCN(Cc2ccccc2)CCCN(S(=O)(=O)c2ccn(C)c2)C1 [Compound 36]

Same assay, conditions: read-out: IC50 CD4 (μM) mean ± SD; 50% down-modulation of CD4 expression, stably CD4-YFP transfected CHO cells, 24 h drug treatment; n = 3; cyclohexylmethyl-tailed compounds

Row | DC50 [µM] | Structure (SMILES)
32 | > 50 | C=C1CN(S(=O)(=O)c2ccc(C)cc2)CCCN(CC2CCCCC2)CCCN(S(=O)(=O)c2ccc(OCCCN)cc2)C1 [Compound 54]
33 | 0.19 ± 0.01 | C=C1CN(S(=O)(=O)c2ccc(C)cc2)CCCN(CC2CCCCC2)CCCN(S(=O)(=O)c2ccc(OCC)cc2)C1 [Compound 52]
34 | 0.13 ± 0.01 | C=C1CN(S(=O)(=O)c2ccc(C)cc2)CCCN(CC2CCCCC2)CCCN(S(=O)(=O)c2ccc(N3CCOCC3)cc2)C1 [Compound 48]
35 | 1 ± 0.15 | C=C1CN(S(=O)(=O)c2ccc(C)cc2)CCCN(CC2CCCCC2)CCCN(S(=O)(=O)c2ccc(N)cc2)C1 [Compound 46]
36 | 1.14 ± 0.02 | C=C1CN(S(=O)(=O)c2ccc(C)cc2)CCCN(CC2CCCCC2)CCCN(S(=O)(=O)c2ccc(O)cc2)C1 [Compound 51, 9-Cyclohexylmethyl-1-(p-hydroxybenzenesulfonyl)-3-methylene-5-(p-toluenesulfonyl)-1,5,9-triazacyclododecane]
37 | 0.75 ± 0.06 | C=C1CN(S(=O)(=O)c2ccc(C)cc2)CCCN(CC2CCCCC2)CCCN(S(=O)(=O)c2ccc(OCCCN3C(=O)c4ccccc4C3=O)cc2)C1 [Compound 53]
38 | 0.18 ± 0.01 | C=C1CN(S(=O)(=O)c2ccc(C)cc2)CCCN(CC2CCCCC2)CCCN(S(=O)(=O)c2ccc(-n3cccc3)cc2)C1 [Compound 47]
39 | 0.15 ± 0.01 | C=C1CN(S(=O)(=O)c2ccc(C)cc2)CCCN(CC2CCCCC2)CCCN(S(=O)(=O)c2ccc(OC)cc2)C1 [Compound 1, reference compound]
40 | 0.063 ± 0.005 | C=C1CN(S(=O)(=O)c2ccc(C)cc2)CCCN(CC2CCCCC2)CCCN(S(=O)(=O)c2ccc(N(C)C)cc2)C1 [Compound 40, 9-Cyclohexylmethyl-1-(p-(dimethylamino)benzenesulfonyl)-3-methylene-5-(p-toluenesulfonyl)-1,5,9-triazacyclododecane]

Row | Structure (SMILES) | DC50 [µM]
41 | C=C1CN(S(=O)(=O)c2ccc(C)cc2)CCCN(CC2CCCCC2)CCCN(S(=O)(=O)c2ccc(OCCCC)cc2)C1 [Compound 39, 1-(p-Butoxybenzenesulfonyl)-9-cyclohexylmethyl-3-methylene-5-(p-toluenesulfonyl)-1,5,9-triazacyclododecane] | 1.1 ± 0.13
